According to patent publication US20230286973A1, “PROTEIN SECRETION INHIBITORS” (KEZAR LIFE SCIENCES, priority 2020, published 2023):

What was measured:
[1] = test system: multiple myeloma cell line U266B1; assay: U266 Cell Viability Assay; type: cell-based, human; conditions: Homo sapiens, U-266, 48 h, U266B1 cells, Celltiter-Glo
Procedure, shortened: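 Viability is measured as luciferase signal from CellTiter-Glo following a 48-hour incubation with compound at 37° C. under 5% CO2. Where structures lack drawn stereochemistry, values refer to stereoisomer mixtures.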

[2] = Liver Microsome Stability Assay (human); conditions: human liver microsomes, with NADPH, 1.0 uM compound
Experimental: (§1) Stability of a compound was assessed in the presence of liver microsomes from various sources—mouse, rat, monkey and human liver microsomes. 1.0 uM compound, 0.4% DMSO in 0.1 M Potassium Phosphate with 1.0 mg/mL liver microsomes, were incubated at 37° C. with or without 1 mM NADPH. The samples were quenched at 0, and 30 minutes.

[3] = Liver Microsome Stability Assay (monkey); conditions: monkey liver microsomes, with NADPH, 1.0 uM compound
Experimental: as §1

[4] = test system: TNFα-FL/Gaussia Luciferase; assay: Dox Induced TNFα-FL-Gluc Assay; type: cell-based; conditions: for IC50: 24 hr Dox induction, 293FRT/TO cells, mean, read-out: 24 hr Dox Inducible TNFaFLGluc 293FRT/TO: Mean IC50; for 24 hr Dox Inducible TNFaFLGluc 293FRT/TO: TNF/PD1: ratio of TNFaFLGluc IC50 to PD1ssGluc IC50, '<=>' given where both are I.A.
Procedure, shortened: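 Doxycycline-inducible Gaussia luciferase-tagged full-length TNFα (1-233) was expressed in stable Flp-In 293 T-REx cells. Compounds were co-added with doxycycline and incubated at 37 °C, 5% CO2.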

[5] = Liver Microsome Stability Assay (mouse); conditions: mouse liver microsomes, with NADPH, 1.0 uM compound
Experimental: as §1

[6] = test system: multiple myeloma cell line NCI-H929; assay: H929 Cell Viability Assay; type: cell-based, human; conditions: Homo sapiens, NCI-H929, 48 h, NCI-H929 cells, Celltiter-Glo
Procedure, shortened: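 Viability is scored by CellTiter-Glo luminescence following a 48-hour treatment at 37° C. Data for structures shown without stereochemistry refer to stereoisomer mixtures.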

[7] = Liver Microsome Stability Assay (rat); conditions: rat liver microsomes, with NADPH, 1.0 uM compound
Experimental: as §1

[8] = test system: PD1-ss+10aa/Gaussia Luciferase; assay: Dox-Induced PD1-ss-Gluc Assay; type: cell-based; conditions: 24 hr Dox induction; 293FRT/TO cells; mean; read-out: 24 hr Dox Inducible PD1ssGluc 293FRT/TO: Mean IC50
Procedure, shortened: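 Compounds were added in DMSO/media with doxycycline and incubated at 37 °C, 5% CO2, on 293 T-REx cells plated one day earlier. These cells stably express, under tetracycline-regulated control, a Gaussia luciferase fused to the PD1 signal peptide plus 10 residues. Structures drawn without stereochemistry were tested as stereoisomer mixtures.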

[9] = test system: IL-2-FL/Gaussia Luciferase; assay: Dox Induced IL2-FL-Gluc Assay; type: cell-based; conditions: for IC50: 24 hr Dox induction, 293FRT/TO cells, mean, read-out: 24 hr Dox Inducible IL2FLGluc 293FRT/TO: Mean IC50; for 24 hr Dox Inducible IL2FLGluc 293FRT/TO: IL2/PD1: ratio of IL2FLGluc IC50 to PD1ssGluc IC50, '<=>' given where both are I.A.
Procedure, shortened: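 Doxycycline induces an IL-2(1-153)–Gaussia luciferase fusion in a stable Flp-In 293 T-REx line. Compound exposure runs alongside induction at 37° C.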

[10] = test system: HER3-ss+4aa/Gaussia Luciferase; assay: Dox-Induced Her3-ss-Gluc Assay; type: cell-based; conditions: 24 hr Dox induction; 293FRT/TO cells; mean; read-out: 24 hr Dox Inducible Her3(ss + 4)Gluc 293FRT/TO: Mean IC50
Procedure, shortened: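 Reporter line: Flp-In 293 T-REx, T-REx-regulated HER3-ss+4aa fused to Gaussia luciferase. Compound co-added with doxycycline after overnight plating, 37° C., 5% CO2.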

Row | Compound | EC50 [1] | Liver Microsome Stability (Multiple Species): Human - % Remaining after 30 min w/NADPH [2] | Liver Microsome Stability (Multiple Species): Monkey - % Remaining after 30 min w/NADPH [3] | IC50 [4] | 24 hr Dox Inducible TNFaFLGluc 293FRT/TO: TNF/PD1 [4] | Liver Microsome Stability (Multiple Species): Mouse - % Remaining after 30 min w/NADPH [5] | EC50 [6] | Liver Microsome Stability (Multiple Species): Rat - % Remaining after 30 min w/NADPH [7] | IC50 [8] | IC50 [9] | 24 hr Dox Inducible IL2FLGluc 293FRT/TO: IL2/PD1 [9] | IC50 [10]
1 | CN(C)C(=O)CCCn1cccc1C(=O)Nc1nc([C@H]2CCCN2c2ccccc2)cs1 [Compound C61, (R)-1-(4-(dimethylamino)-4-oxobutyl)-N-(4-(1-phenylpyrrolidin-2-yl)thiazol-2-yl)-1H-pyrrole-2-carboxamide] | > 25 µM | 0.27% | 0.03% | > 25 µM | >2.79 | 0.16% | > 25 µM | 3.4% | 8.96 µM | 16.7 µM | 1.9 | 20.4 µM
2 | O=C(Nc1nc([C@H]2CCCN2c2ccccc2)cs1)c1cccn1CC1COC1 [Compound C84, (R)-1-(oxetan-3-ylmethyl)-N-(4-(1-phenylpyrrolidin-2-yl)thiazol-2-yl)-1H-pyrrole-2-carboxamide] | > 25 µM | 31.5% | 0.28% | > 25 µM | >5.88 | 22.3% | > 25 µM | 4.2% | 4.25 µM | > 25 µM | >5.9 | 6.59 µM
3 | CCc1ccc(N2CCC[C@@H]2c2csc(NC(=O)c3cccn3CC3CCOCC3)n2)nc1 [Compound C85, (R)-N-(4-(1-(5-ethylpyridin-2-yl)pyrrolidin-2-yl)thiazol-2-yl)-1-((tetrahydro-2H-pyran-4-yl)methyl)-1H-pyrrole-2-carboxamide] | > 25 µM | 1.61% | 0.21% | 1.2 µM | 9.53 | 21.3% | 6.12 µM | 11.2% | 0.126 µM | 0.279 µM | 2.2 | 0.257 µM
4 | N#Cc1ccccc1Cn1cccc1C(=O)Nc1nc([C@H]2CCCN2c2ccccc2)cs1 [Compound C86, (R)-1-(2-cyanobenzyl)-N-(4-(1-phenylpyrrolidin-2-yl)thiazol-2-yl)-1H-pyrrole-2-carboxamide] | > 25 µM | 27.3% | 15% | > 25 µM | >8.38 | 43.5% | > 25 µM | 20.2% | 2.98 µM | 2.38 µM | 0.8 | 1.11 µM
5 | C[C@@H](CC#N)Cn1cccc1C(=O)Nc1nc([C@H]2CCCN2c2ccccc2)cs1 [Compound C87, 1-((S)-3-cyano-2-methylpropyl)-N-(4-((R)-1-phenylpyrrolidin-2-yl)thiazol-2-yl)-1H-pyrrole-2-carboxamide] | > 25 µM | 12.8% | 0.21% | 0.731 µM | 9.32 | 14.2% | 4.05 µM | 6.85% | 0.0784 µM | 0.238 µM | 3 | 0.129 µM
6 | C[C@H](CC#N)Cn1cccc1C(=O)Nc1nc([C@H]2CCCN2c2ccccc2)cs1 [Compound C88, 1-((R)-3-cyano-2-methylpropyl)-N-(4-((R)-1-phenylpyrrolidin-2-yl)thiazol-2-yl)-1H-pyrrole-2-carboxamide] | > 25 µM | 15.7% | 1.91% | 5.93 µM | 10.2 | 14.8% | 21.8 µM | 5.31% | 0.581 µM | 1.9 µM | 3.3 | 0.942 µM
7 | CC(C#N)CCn1cccc1C(=O)Nc1nc([C@H]2CCCN2c2ccccc2)cs1 (stereo partly drawn) [Compound C89, 1-(3-cyanobutyl)-N-(4-((R)-1-phenylpyrrolidin-2-yl)thiazol-2-yl)-1H-pyrrole-2-carboxamide] | > 25 µM | 24% | 0.31% | 14.5 µM | 12.3 | 16.5% | > 25 µM | 5.16% | 1.18 µM | 2.86 µM | 2.4 | 1.79 µM
8 | CC(CCC#N)n1cccc1C(=O)Nc1nc([C@H]2CCCN2c2ccccc2)cs1 (stereo partly drawn) [Compound C90, 1-(4-cyanobutan-2-yl)-N-(4-((R)-1-phenylpyrrolidin-2-yl)thiazol-2-yl)-1H-pyrrole-2-carboxamide] | > 25 µM | 1.77% | 1.77% | 16.1 µM | 9.76 | 1.54% | > 25 µM | 7.22% | 1.65 µM | 4.01 µM | 2.4 | 2.39 µM
